From patent US20120177690A1, “USE OF RAPAMYCIN DERIVATIVES IN VASCULOPATHIES AND XENOTRANSPLANTATION” (Novartis AG, priority 1996, published 2012) come the findings set out here.

One data set deals with hamster heart xenograft. The data set is described as follows: In vivo heart xenotransplantation (hamster-to-rat). The source says: The hamster-into-rat xenograft combination is a so-called difficult concordant combination. […] This is visualized in histology by destruction of blood vessels, exsudation and extravasation of erythrocytes, and influx by polymorpho- nuclear granulocytes: often there are signs of hemorrhage and thrombosis. […] This is visualized in histology by influx of mononuclear cells, including lymphocytes, lymphoblastoid cells, and macrophages, and destruction of the myocyte parenchyma. The inhibition of cellular rejection requires more immuno-suppression than that of allografts. Congenitally athymic (mu/mu) rats lack a competent (thymus-dependent) cellular immune system and generally are unable to reject allografts.
The graft is monitored daily by palpation of the abdomen. Rejection is concluded in case of cessation of heart beat. Animals are weighed weekly. In the present series of experiments, the endpoint is set to 28 days. Animals are subjected to autopsy; apart from the graft, weight and histology is assessed for thymus, spleen, liver, seminal vesicles and testes. Blood is taken and processed to serum for the determination of cytolytic anti-hamster erythrocyte antibody and hemolytic complement activity.

A further data set deals with carotid artery. The data set is described as follows: Angioplasty, balloon catheter injury of the left common carotid artery. In kind it is in vivo, RoRo rats. Particulars: for inhibition of neointima formation: day -3 to day +14. The procedure: Studies on angioplasty are done in the model of balloon catheter injury: Balloon catheterization is performed on day 0, essentially as described by Powell et al. (1989). Under Isofluorane anaesthesia, a Fogarty 2 F catheter is introduced into the left common carotid artery via the external carotid and inflated (distension≈10 μl H2O). The inflated balloon is withdrawn along the length of the common carotid three times, the latter two times whilst twisting gently to obtain a uniform de-endothelialization. The cathethcr is then removed, a ligature placed around the external carotid to prevent bleeding and the animals allowed to recover.
2 groups of 12 RoRo rats (400 g. approximately 24 weeks old) are used for the study: one control group and one group receiving the compound of formula I. The rats are fully randomized during all handling, experimental procedures and analysis.
The compound to be tested is administered p.o. (gavage) starting 3 days before balloon injury (day −3) until the end of the study, 14 days after balloon injury (day +14). Rats are kept in individual cages and allowed food and water ad libidum.
The rats are then anaesthetized with Isofluorane, a perfusion catheter inserted through the left ventricle and secured in the aortic arch, and an aspiration cannula inserted into the right ventricle. […] The perfusion pressure is 150 mmHg at the tip of the cannula (≈100 mmHg in the carotid artery), as determined in a preliminary experiment by introducing a cannula attached to a pressure transducer into the external carotid). […]
Sections 1-2 μm thick are cut from the middle section of each carotid with a hard metal knife on a rotary microtome and stained for 2 min with Giemsa stain. About 5 sections from each carotid are thus prepared and the cross-sectional area of the media, neointima and the lumen morphometrically evaluated by means of an image analysis system (MCID, Toronto, Canada).

The subject of the next data set is aorta allograft. Description: Aorta transplantation in the rat (DA to Lewis). In kind it is in vivo. The conditions noted are these: per os in microemulsion, 2.5 mg/kg/day for 7 weeks and 0.63-5.0 mg/kg/day for 11 weeks. How it is done:
These include infiltration into the adventitia of mononuclear cells (lymphocytes, macrophages, some plasma cells), and thickening of the intima.
Donor aorta between the branch of the renal artery and the start of the caudal mesenteric aorta, about 1 cm in length, is harvested from a male DA (RTI^a) rat and transplanted orthotopically in a male Lewis (RTI^1) rat. Weekly after transplantation, the body weight is recorded. At autopsy, the graft with part of the aorta of the recipient just above and below the transplant is removed. It is perfused ex vivo with phosphate-buffered saline supplemented with 2% paraformaldehyde and 2.5% glutaraldehyde for about 2 minutes, then for 24 hours fixed by immersion fixation in the same solution, and thereafter fixed in 4% buffered formalin. Pieces of the graft are embedded in paraffin, in such a way that both a transversal section and a longitudinal section is made of the grafted aorta and the recipient's own aorta.
Sections of 4 μm thickness are stained by hematoxylin-eosin, elastica-von-Gieson and periodic-acid-Schiff. Apart from conventional light microscopy, images are recorded by confocal laser scanning microscopy. From each section, four areas are scanned, and from each area the thickness of the intima and intima+media is measured at five locations. […]

The nature of data set [1]: 4-week toxicity study in monkeys. The data set is classed as in vivo. How it is done: (§1) Compounds of formula I are well tolerated at dosages required for use in accordance with the present invention. For example, the NTEL for Compound A in a 4-week toxicity study is 0.5 mg/kg/day in rats and 1.5 mg/kg/day in monkeys.
In a further data set the test system is kidney allograft. The data set is described as follows: Chronic allograft rejection, rat kidney allograft model (DA to Lewis). The data set is classed as in vivo. How it is done: The kidney of a male DA (RTI^a) rat is orthotopically transplanted into a male Lewis (RTI^1) recipient. In total 24 animals are transplanted. All animals are treated with cyclosporine A at 7.5 mg/kg/day per as for 14 days starting on the day of transplantation, to prevent acute cellular rejection. Contralateral nephrectomy is not performed. Each experimental group treated with a distinct dose of a compound of formula I or placebo comprises six animals.
Starting at day 53-64 after transplantation, the recipient animals are treated per os for another 69-72 days with a compound of formula I or receive placebo. At 14 days after transplantation animals are subjected to graft assessment by magnetic resonance imaging (MRI) with perfusion measurement of the kidneys (with comparison of the grafted kidney and the own contralateral kidney). This is repeated at days 53-64 after transplantation and at the end of the experiment. The animals are then autopsied. Rejection parameters such as MRI score, relative perfusion rate of the grafted kidney and histologic score of the kidney allograft for cellular rejection and vessel changes are determined and statistically analyzed. Administration of a compound of formula I, e.g. Compound A, at a dose of 0.5 to 2.5 mg/kg in this rat kidney allograft model yields a reduction in all above mentioned rejection parameters.

Data set [2] can be described thus: 4-week toxicity study in rats. The data set is classed as in vivo. The procedure:
as §1

The mark [3] stands for this setting: 2.5 mg/kg/day per os, vs placebo group.

For `CO[C@H]1C[C@@H]2CC[C@@H](C)[C@@](O)(O2)C(=O)C(=O)N2CCCC[C@H]2C(=O)O[C@H]([C@H](C)C[C@@H]2CC[C@@H](OCCO)[C@H](OC)C2)CC(=O)[C@H](C)/C=C(\C)[C@@H](O)[C@@H](OC)C(=O)[C@H](C)C[C@H](C)/C=C/C=C/C=C/1C` [Compound A, 40-O-(2-hydroxy)ethyl-rapamycin], the graft survival result in the data set on hamster heart xenograft (athymic recipients) is on record as “prolonged graft survival”. Moreover, in the data set with hamster heart xenograft (euthymic recipients), the graft survival result is on record as “prolonged graft survival”. Also, the “inhibition of neointima formation” value in the data set on carotid artery (0.5 mg/kg p.o. daily) was 50%. For the same molecule, the “inhibition of neointima formation” value in the data set with carotid artery (2.5 mg/kg p.o. daily) is on record as 75%. Further, in the data set on carotid artery (p.o. day -3 to day +14, compared to the control animals), the intimal thickening result was “significantly less”. For the same molecule, in the data set on aorta allograft, the graft infiltration entry was “significantly inhibit” and the neointima formation result was “significantly inhibit”. In data set [1], this molecule gave an NTEL of 1.5 mg/kg/day. Further, in the data set on kidney allograft (setting [3]), the “MRI score of rejection” value is listed as “significantly lower”; the “histologic score for cellular rejection and vessel changes” value was “significantly lower”; the “reduction in perfusion rate assessed by MRI” value is reported as “significantly lower”. The “rejection parameters (MRI score, relative perfusion rate of the grafted kidney, histologic score for cellular rejection and vessel changes)” value with kidney allograft (dose of 0.5 to 2.5 mg/kg per os, from day 53-64 after transplantation for 69-72 days) is recorded as “reduction”. In data set [2], this molecule showed an NTEL of 0.5 mg/kg/day.
